The text below walks through data of PMC10144566, “Pharmacokinetic Profile Evaluation of Novel Combretastatin Derivative, LASSBio-1920, as a Promising Colorectal Anticancer Agent” (Pharmaceutics, 2023).

Series [1] deals with HPBMC, human peripheral blood mononuclear cells. As to the kind of experiment: MTT cytotoxicity assay, HPBMC. Type of series: cell-based. The note with it: PBMC, 72 h incubation, read-out: IC50 (95% CI) HPBMC. The protocol:
Heparinized blood was collected from healthy, non-smoking donors who had not taken any drugs during the 15 days prior to sampling. Human peripheral blood mononuclear cells (HPBMC) were isolated by a standard density-gradient centrifugation method over Ficoll-Hypaque® media (Merck-Sigma-Aldrich, St. Louis, MO, USA). HPBMC were washed and resuspended in RPMI-1640 medium supplemented with 20% fetal bovine serum, 2 mM glutamine, 100 U/mL penicillin, and 100 µg/mL streptomycin at 37 °C with 5% CO2. Phytohemagglutinin (3%) was added at the beginning of the culture.
The cytotoxicity of the compounds was determined using the MTT assay. Cells were seeded in 96-well plates as follows: 0.7 × 10^5 cells/well for adherent cancer cells, 0.3 × 10^5 cells/well for suspended cancer cells, and 0.2 × 10^5 cells/well for HPBMCs. The treatments were dissolved in DMSO and added to each well using an automated liquid handler for high-throughput screening (Biomek 3000—Beckman Coulter, Inc., Fullerton, CA, USA) and incubated for either 24, 48, and 72 h. The control group was treated with the vehicle. […] After incubation, the supernatant was decanted and replaced with fresh medium containing MTT (0.5 mg/mL). Three hours later, the MTT’s formazan product was dissolved in 150 µL of pure DMSO, and absorbance was measured at 595 nm (DTX 880 Multimode Detector, Beckman Coulter, Inc., Pasadena, CA, USA).
Data were presented as mean ± standard error of the mean (SEM) from three independent experiments performed in triplicate, calculated using Prism 8.0 (GraphPad/Intuitive Software for Science, San Diego, CA, USA). The IC50 of the compounds was obtained using a non-linear regression of the cytotoxicity curves.
In general terms: Formazan colour is commonly taken as a measure of viable cells.

For series [2], the system named is HCT-116 cells. Description: Annexin V/7-AAD apoptosis assay by flow cytometry, HCT-116. Conditions: 6 µM, 48 h, negative control 5.14 ± 0.61%. Type of series: cell-based, human. The protocol: The control group received the same amount of vehicle, of which the concentration was kept constant (below 0.5%). Cell treatments were completed in triplicate. CA4 (0.2 or 0.5 µM) was used as the positive control. Stock solutions of the compounds tested were dissolved in DMSO and diluted in the culture medium to obtain the desired concentrations.
Apoptosis assay: Apoptosis was analyzed using Annexin V/7-AAD staining followed by flow cytometry. Cells were collected and stained using an Annexin V-PE/7-AAD apoptosis detection kit. Annexin V binds to phosphatidylserine (PS) in apoptosis cells as PS translocates from the inner to the outer leaflet of the cytoplasmic membrane. 7-AAD is a fluorescent intercalator of DNA impermeable to the cell, providing a reliable indication of membrane integrity. Double staining distinguishes between viable, early apoptotic, necrotic, and late apoptotic cells. The resulting fluorescence of annexin V-PE at 583 nm and 7-AAD at 680 nm of every sample was analyzed by flow cytometry. The 7-AAD-positive and annexin V-negative cells were considered necrotic. Annexin V-positive cells (7-AAD-positive and 7-AAD-negative cells) were classified as apoptotic. 7-AAD-negative and annexin V-negative cells were deemed viable.
(In flow cytometry, cells or beads pass a laser one at a time.)

Series [3] can be described thus: Microsomal (metabolic) stability. Type of series: in vitro ADME. The note with it: Wistar rat liver microsomes, with or without NADPH-generating system, 100 µM, up to 120 min. As for the experimental part:
Livers were obtained from male Wistar rats (250 and 300 g) from the Federal University of Ceara (UFC, Fortaleza, Brazil). The livers were maintained in an ice bath and washed with 3 volumes of 0.05 M Tris-HCl and 0.25 M sucrose, pH 7.4. They were then sliced and homogenized in a Potter–Elvehjem glass-Teflon homogenizer. The homogenates were centrifuged for 30 min at 900× g at 4 °C, and the supernatant fraction was centrifuged at 10,000× g for 1 h at 4 °C. The pellet was discarded, and the supernatant fraction was centrifuged at 100,000× g for 1 h at 4 °C. The microsomal fraction in the resulting pellet was recovered. The pellet was washed and resuspended twice in 0.05 M Tris-HCl, condensed into a pellet again by centrifugation for 1 h at 100,000× g at 4 °C and, finally, resuspended in the Tris-HCl buffer. Metabolic assays were carried out with frozen microsomes in Tris–HCl buffer, stored at –80 °C. […]
The final concentration of DMSO in the incubation mixture was 0.5%. […] The supernatant was analyzed by HPLC (acetonitrile/water 7:3 with 0.1% trifluoroacetic acid) using an internal standard (4-acetylbiphenyl—final concentration of 20 µM). […]

Series [4] can be described thus: PAMPA-GIT permeability. The class given is in vitro ADME. Conditions: PAMPA-GIT, 5 h, room temperature; read-out: Pe (Experimental). (The PAMPA barrier holds no transporters, so it reflects passive diffusion.)
Source text: For this, two 96-well plates were placed one above the other, and between them, an artificial hydrophobic polyvinylidene fluoride (PVDF) membrane, which was impregnated with a lipid solution. The top plate works as the donor compartment and the bottom one as the receiver compartment.
Parallel artificial membrane permeation assay for gastrointestinal tract (GIT-PAMPA): 1% (w/v) phosphatidylcholine was mixed with dodecane as a lipid solution to impregnate the PVDF membrane between the donor and receiver plates to stimulate intestinal permeability. […] A total of 180 µL of the mixture of PBS and DMSO (v/v 95:5) was added to the recipient plate, and 180 µL of the test solution was added to the donor plate. Immediately and carefully, the donor plate was placed above the receiver plate and incubated for 5 h at room temperature. The solution captured on the receptor plate was removed and subsequently analyzed by a UV detector (SpectraMax 5®—Molecular Devices, Sao Jose, CA, USA). The experiments were performed in quadruplicate.
Series [5] concerns PC-9, lung adenocarcinoma (overexpressed EGFR with L858R mutation). Description: MTT cytotoxicity assay, PC-9. Conditions: for IC50: Homo sapiens.
Procedure: (§1) The cytotoxicity of the compounds was determined using the MTT assay [13]. Cells were seeded in 96-well plates as follows: 0.7 × 10^5 cells/well for adherent cancer cells, 0.3 × 10^5 cells/well for suspended cancer cells, and 0.2 × 10^5 cells/well for HPBMCs. […] The control group was treated with the vehicle. […] After incubation, the supernatant was decanted and replaced with fresh medium containing MTT (0.5 mg/mL).
Series [6] relates to SF-295, glioblastoma. Description: MTT cytotoxicity assay, SF-295. The note with it: Homo sapiens, SF-295, 72 h, read-out: IC50 (95% CI) SF-295.
Procedure: as §1
In series [7] the test system is H-1975, non-small cell lung adenocarcinoma. As to the kind of experiment: MTT cytotoxicity assay, H-1975. The note with it: Homo sapiens, NCI-H1975, 72 h, read-out: IC50 (95% CI) H-1975.
Procedure: as §1
Series [8] deals with human tumor cell lines (HCT-116, SF-295, PC-3, H-1975, PC-9, N-87). As to the kind of experiment: MTT cytotoxicity assay, panel of human tumor cell lines. The note with it: 72 h, read-out: IC50 values against all tumor cell lines.
Procedure: as §1

Each structure is given as a SMILES string. Read-outs that look alike come from different tables or passages of the source.

As usually defined, the IC50 is the concentration at which inhibition is half-maximal. In the case of `COc1cc(C(=O)N/N=C/c2cc3ccccc3s2)cc(OC)c1OC` [LASSBio-1920, (E)-N′-(Benzo[b]thiophen-2-ylmethylene)-3,4,5-trimethoxybenzohydrazide], the IC50 in series [1] was found to be 0.14 µM; in series [5] (24 h, read-out: IC50 (95% CI) PC-9 24 h), 78.8 µM; in series [5] (48 h, read-out: IC50 (95% CI) PC-9 48 h), 1.01 µM; in series [5] (72 h, read-out: IC50 (95% CI) PC-9 72 h), 0.07 µM; in series [6] it was 0.11 µM; in series [7] it was 0.21 µM. Also, in series [8], the IC50 is 0.06 to 1.68 µM. In series [2], the “apoptotic HCT-116 cells” value was 12.62 ± 2.26%. In addition, the “metabolic stability in liver microsomal fraction” value in series [3] is listed as “significantly metabolized by the microsomal fraction only in the presence of an NADPH-generating system”. The Papp at 5 h, 0.5 mM in series [4] was 6.6 ×10⁻⁶ cm/s. Besides, the “SI HPBMC/PC-9” value in series [5] (IC50 for HPBMC/IC50 for the tumor cell line, 72 h) is recorded as 2.
